Data on 6 compounds can be found in patent publication US10370425B2, “Peptide antagonists of the calcitonin CGRP family of peptide hormones and their use” (priority 2012, dated 2019).

Positions of bridges follow the written chain, without caps; N, C: chain ends. Residues, ends and D or L forms follow the SMILES beside them.

This experiment deals with T1, amylin receptor, AMY1, a CT (calcitonin) receptor/RAMP1 (receptor-activity modifying protein) complex (Homo sapiens, UniProt O60894+P30988).
T1 construct: host or cells: CHO-K1/AMY1/Gα15
T1 sequence (P30988 25-474): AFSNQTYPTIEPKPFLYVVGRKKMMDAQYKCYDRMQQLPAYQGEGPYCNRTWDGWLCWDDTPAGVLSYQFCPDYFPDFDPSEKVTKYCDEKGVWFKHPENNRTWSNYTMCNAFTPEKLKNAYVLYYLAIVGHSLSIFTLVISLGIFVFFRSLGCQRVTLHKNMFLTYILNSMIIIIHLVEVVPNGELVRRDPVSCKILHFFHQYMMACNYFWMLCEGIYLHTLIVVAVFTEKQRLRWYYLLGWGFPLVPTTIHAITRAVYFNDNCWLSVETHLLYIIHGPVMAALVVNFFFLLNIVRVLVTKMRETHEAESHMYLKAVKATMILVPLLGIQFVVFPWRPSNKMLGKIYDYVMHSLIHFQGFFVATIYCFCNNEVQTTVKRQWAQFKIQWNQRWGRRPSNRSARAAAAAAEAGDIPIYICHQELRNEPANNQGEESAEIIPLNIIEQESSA
T1 sequence (O60894 27-148): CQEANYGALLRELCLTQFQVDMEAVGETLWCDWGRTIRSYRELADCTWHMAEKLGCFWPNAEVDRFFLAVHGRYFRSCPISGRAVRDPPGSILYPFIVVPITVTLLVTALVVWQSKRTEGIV
The experiment is described as follows: Calcium flux assay (FLIPR Calcium 4) of inhibition of α-CGRP stimulation in CHO-K1/AMY1/Gα15 cells. It counts as cell-based. The settings on record: at maximal test concentration (series starts with 1 μM); CHO-K1/AMY1/Gα15 cells stimulated with 32 nM (EC80) α-CGRP; n = 2; read-out: % Inhibition @ Maximal concentration (Mean +/− SD, n = 2). How it is done:
Using a calcium flux assay, the dose-dependent inhibitory response of peptide antagonists of the present invention on an amylin receptor, AMY1, a CT (calcitonin) receptor/RAMP1 (receptor-activity modifying protein) complex was determined. The recombinant cell line CHO-K1/AMY1/Gα15 (GenScript, Piscataway, N.J., Catalog No. M00475) was employed in the assay. Peptide antagonist activities were tested, in duplicate, at five different concentrations, starting with 1 μM and serially diluted five-fold, in DMSO. AC187 (SEQ ID NO: 55), a known amylin receptor antagonist (available for example from Tocris Bioscience, Minneapolis, Minn., Catalog No. 3419) was used as a positive control in the assays, and human α-CGRP, a known amylin receptor agonist (SEQ ID NO:56) , (available for example from Tocris Bioscience, Minneapolis, Minn., Catalog No. 3012) was used as a positive control in the assays. The FLIPR® Calcium 4 Assay Kit (Molecular Devices, Sunnyvale, Calif.) was used.
Human α-CGRP having the amino acid sequence, NH2-[…]-NH2 (SEQ ID NO:56) and AC187 having the sequence […] (SEQ ID NO: 55) were employed as negative and positive controls, respectively. Stock solutions were further diluted in HBSS-HEPES buffer to make 5×final control solutions.
CHO-K1/AMY1/Gα15 cells were seeded in a 384-well black wall, clear bottom plate at a density of 20,000 cells/well in 20 μL of growth medium 20 hours prior to the day of the experiment and maintained at 37° C./5% CO2.
Per the assay kit protocol, dye-loading solution (at 2×final concentration) was added into the assay plate, 20 μL per well. Compound solution (at 5 ×final concentration) was added into the assay plate, 10 uL per well. The assay plate was placed into a 37° C. incubator for 1 hour, then left for 15 min at RT. The agonist plate (at 5×EC80 concentration) was placed in Source 2. The total reading time was 120 sec. The agonist was added after 20 seconds reading of the baseline and the fluorescence signal was captured for another 100 seconds (21 s to 120 s).
In screening, cells stimulated with assay buffer were chosen as the background; cells stimulated with agonist (at […] concentration) were chosen as the negative control.
Data were recorded by ScreenWorks (version 3.1) as FMD files and stored on the GenScript computer network for off-line analysis. Data acquisition and analyses was performed using ScreenWorks (version 3.1) program and exported to Excel. The average value of 20 (1 s to 20 s) seconds reading was calculated as the baseline reading and the relative fluorescent units (ΔRFU) intensity values were calculated with the maximal fluorescent units (21 s to 120 s) subtracting the average value of baseline reading.
The IC50 value of AC187 was 8 μM. The inhibitory activity of the tested peptide antagonists was normalized with the negative control (AC187) and reported as % Inhibition, calculated from the following equation: % Inhibition=(ΔRFUcompound−ΔRFUBackground)/(ΔRFUNegative control−ΔRFUBackground) * 100% Inhibition was then plotted along the Y-axis, with the test concentrations as indicated on the X-axis. The peptides were tested at indicated concentrations and stimulated with 32 nM (EC80) α-CGRP (Mean +/− SD, n=2).
With `CC(C)C[C@H](NC(=O)[C@H](CCCNC(=N)N)NC(=O)CNC(=O)[C@H](CC(C)C)NC(=O)[C@@H](NC(=O)[C@@H]1CSSC[C@H](NC(=O)[C@H](C)N)C(=O)N[C@@H](CCCNC(=N)N)C(=O)N[C@@H](Cc2ccccc2)C(=O)NCC(=O)N[C@@H](C)C(=O)N1)C(C)C)C(=O)N[C@@H](CO)C(=O)N[C@@H](CCC(N)=O)C(=O)N[C@@H](CCC(=O)O)C(=O)N[C@@H](CC(C)C)C(=O)N[C@@H](Cc1c[nH]cn1)C(=O)N[C@@H](CCCNC(=N)N)C(=O)N[C@@H](CC(C)C)C(=O)N[C@@H](CCC(N)=O)C(=O)N[C@H](C(=O)N[C@@H](Cc1ccc(O)cc1)C(=O)N1CCC[C@H]1C(=O)N[C@@H](CCCNC(=N)N)C(=O)N[C@H](C(=O)N[C@@H](CC(N)=O)C(=O)N[C@H](C(=O)NCC(=O)N[C@@H](CO)C(=O)N[C@@H](CCCCN)C(=O)N[C@@H](C)C(=O)N[C@@H](Cc1ccccc1)C(N)=O)C(C)C)[C@@H](C)O)[C@@H](C)O` [compound 6] (H-ACRFGACVLGRLSQELHRLQTYPRTNVGSKAF-NH2; disulfide 2-7 (inferred)), the inhibition at 1 µM turned out to be 93.9%.

For `CC(C)C[C@H](NC(=O)[C@H](CCCNC(=N)N)NC(=O)CNC(=O)[C@H](CC(C)C)NC(=O)[C@@H](NC(=O)[C@@H]1CSSC[C@H](NC(=O)[C@H](C)N)C(=O)N[C@@H](CC(N)=O)C(=O)N[C@@H](CC(C)C)C(=O)N[C@@H](CO)C(=O)N[C@@H](C)C(=O)N1)C(C)C)C(=O)N[C@@H](CO)C(=O)N[C@@H](CCC(N)=O)C(=O)N[C@@H](CCC(=O)O)C(=O)N[C@@H](CC(C)C)C(=O)N[C@@H](Cc1c[nH]cn1)C(=O)N[C@@H](CCCNC(=N)N)C(=O)N[C@@H](CC(C)C)C(=O)N[C@@H](CCC(N)=O)C(=O)N[C@H](C(=O)N[C@@H](Cc1ccc(O)cc1)C(=O)N1CCC[C@H]1C(=O)N[C@@H](CCCNC(=N)N)C(=O)N[C@H](C(=O)N[C@@H](CC(N)=O)C(=O)N[C@H](C(=O)NCC(=O)N[C@@H](CO)C(=O)N[C@@H](CCCCN)C(=O)N[C@@H](C)C(=O)N[C@@H](Cc1ccccc1)C(N)=O)C(C)C)[C@@H](C)O)[C@@H](C)O` [compound 7] (H-ACNLSACVLGRLSQELHRLQTYPRTNVGSKAF-NH2; disulfide 2-7 (inferred)), the inhibition at 1 µM stood at 96%.

For the compound `CC(C)C[C@H](NC(=O)[C@H](CCCNC(=N)N)NC(=O)CNC(=O)[C@H](CC(C)C)NC(=O)[C@@H](NC(=O)[C@@H]1CSSC[C@H](NC(=O)[C@H](C)N)C(=O)N[C@@H](CC(N)=O)C(=O)N[C@@H](CC(C)C)C(=O)N[C@@H](CO)C(=O)N[C@@H](C)C(=O)N1)C(C)C)C(=O)N[C@@H](CO)C(=O)N[C@@H](CCC(N)=O)C(=O)N[C@@H](CCC(=O)O)C(=O)N[C@@H](CC(C)C)C(=O)N[C@@H](Cc1c[nH]cn1)C(=O)N[C@@H](CCCNC(=N)N)C(=O)N[C@@H](CC(C)C)C(=O)N[C@@H](CCC(N)=O)C(=O)N[C@H](C(=O)N[C@@H](Cc1ccc(O)cc1)C(=O)N1CCC[C@H]1C(=O)N[C@H](C(=O)N[C@@H](CC(N)=O)C(=O)N[C@H](C(=O)NCC(=O)N[C@@H](CO)C(=O)NCC(=O)N[C@H](C(=O)N1CCC[C@H]1C(N)=O)[C@@H](C)O)[C@@H](C)O)[C@@H](C)O)[C@@H](C)O` [compound 13] (H-ACNLSACVLGRLSQELHRLQTYPTNTGSGTP-NH2; disulfide 2-7 (inferred)), the inhibition at 1 µM was 95.8%.

In the case of `CC(C)C[C@H](NC(=O)[C@H](CCCNC(=N)N)NC(=O)CNC(=O)[C@H](CC(C)C)NC(=O)[C@@H](NC(=O)[C@@H]1CSSC[C@H](NC(=O)[C@H](C)N)C(=O)N[C@@H](C(C)C)C(=O)N[C@@H](CC(C)C)C(=O)NCC(=O)N[C@@H](C)C(=O)N1)C(C)C)C(=O)N[C@@H](CO)C(=O)N[C@@H](CCC(N)=O)C(=O)N[C@@H](CCC(=O)O)C(=O)N[C@@H](CC(C)C)C(=O)N[C@@H](Cc1c[nH]cn1)C(=O)N[C@@H](CCCNC(=N)N)C(=O)N[C@@H](CC(C)C)C(=O)N[C@@H](CCC(N)=O)C(=O)N[C@H](C(=O)N[C@@H](Cc1ccc(O)cc1)C(=O)N1CCC[C@H]1C(=O)N[C@H](C(=O)N[C@@H](CC(=O)O)C(=O)N1CCC[C@H]1C(=O)N[C@@H](CO)C(=O)N[C@@H](CO)C(=O)N1CCC[C@H]1C(=O)N[C@@H](Cc1c[nH]cn1)C(=O)N[C@@H](CO)C(=O)N[C@@H](Cc1ccc(O)cc1)C(N)=O)C(C)C)[C@@H](C)O` [compound 14] (H-ACVLGACVLGRLSQELHRLQTYPVDPSSPHSY-NH2; disulfide 2-7 (inferred)), the inhibition at 1 µM came to 51.9%.

As for `CC(C)C[C@H](NC(=O)[C@H](CCCNC(=N)N)NC(=O)CNC(=O)[C@H](CC(C)C)NC(=O)[C@@H](NC(=O)[C@@H]1CSSC[C@H](NC(=O)[C@H](C)N)C(=O)N[C@@H](C(C)C)C(=O)N[C@@H](CC(C)C)C(=O)NCC(=O)N[C@@H](C)C(=O)N1)C(C)C)C(=O)N[C@@H](CO)C(=O)N[C@@H](CCC(N)=O)C(=O)N[C@@H](CCC(=O)O)C(=O)N[C@@H](CC(C)C)C(=O)N[C@@H](Cc1c[nH]cn1)C(=O)N[C@@H](CCCNC(=N)N)C(=O)N[C@@H](CC(C)C)C(=O)N[C@@H](CCC(N)=O)C(=O)N[C@H](C(=O)N[C@@H](Cc1ccc(O)cc1)C(=O)N1CCC[C@H]1C(=O)N[C@@H](CCCNC(=N)N)C(=O)N[C@H](C(=O)N[C@@H](CC(N)=O)C(=O)N[C@H](C(=O)NCC(=O)N[C@@H](CO)C(=O)N[C@@H](CCCCN)C(=O)N[C@@H](C)C(=O)N[C@@H](Cc1ccccc1)C(N)=O)C(C)C)[C@@H](C)O)[C@@H](C)O` [compound 5] (H-ACVLGACVLGRLSQELHRLQTYPRTNVGSKAF-NH2; disulfide 2-7 (inferred)), the inhibition at 1 µM came out at 88.5%.

Consider `CC[C@H](C)[C@@H]1NC(=O)[C@H](C)NC(=O)[C@H]([C@@H](C)O)NC(=O)[C@H](CC(=O)O)NC(=O)[C@@H](NC(=O)[C@H](C)N)CSSC[C@@H](C(=O)N[C@H](C(=O)N[C@@H](CC(C)C)C(=O)NCC(=O)N[C@@H](CCCNC(=N)N)C(=O)N[C@@H](CC(C)C)C(=O)N[C@@H](CO)C(=O)N[C@@H](CCC(N)=O)C(=O)N[C@@H](CCC(=O)O)C(=O)N[C@@H](CC(C)C)C(=O)N[C@@H](Cc2c[nH]cn2)C(=O)N[C@@H](CCCNC(=N)N)C(=O)N[C@@H](CC(C)C)C(=O)N[C@@H](CCC(N)=O)C(=O)N[C@H](C(=O)N[C@@H](Cc2ccc(O)cc2)C(=O)N2CCC[C@H]2C(=O)N[C@@H](CCCNC(=N)N)C(=O)N[C@H](C(=O)N[C@@H](CC(N)=O)C(=O)N[C@H](C(=O)NCC(=O)N[C@@H](CO)C(=O)N[C@@H](CCCCN)C(=O)N[C@@H](C)C(=O)N[C@@H](Cc2ccccc2)C(N)=O)C(C)C)[C@@H](C)O)[C@@H](C)O)C(C)C)NC1=O` [compound 10] (H-ACDTAICVLGRLSQELHRLQTYPRTNVGSKAF-NH2; disulfide 2-7 (inferred)), for which the inhibition at 1 µM amounted to 96.8%.
